Results reported in patent US9206128B2 (Constellation Pharmaceuticals, Inc., priority 2011, dated 2015).

Columns and labels:
Y641N EZH2 = Y641N EZH2 (Homo sapiens, UniProt Q15910, Y641N); test: Y641N EZH2 activity inhibition assay (as EZH2 assay, reconstituted H3K27Me2 oligonucleosomes as substrate); format: biochemical; settings: Y641N EZH2 mutant enzyme
Procedure: (§1) EZH2 Assay: Assays were carried out by mixing rPRC2 together with biotinylated oligonucleosome substrates in the presence of the radio-labeled enzyme co-factor, S-adenosyl-L-methionine (^3H SAM) (Perkin Elmer) and monitoring the enzymatically mediated transfer of tritiated methyl groups from ^3H SAM to histone lysine residues. The amount of resulting tritiated methyl histone product was measured by first capturing the biotinylated oligonucleosomes in streptavidin (SAV) coated FlashPlates (Perkin Elmer), followed by a wash step to remove un-reacted ^3H SAM, and then counting on a TopCount NXT 384 well plate scintillation counter (Perkin Elmer). The final assay conditions for EZH2 were as follows: 50 mM Tris Buffer pH 8.5, 1 mM DTT, 69 μM Brij-35 detergent, 5.0 mM MgCl2, 0.1 mg/mL BSA, 0.2 μM ^3H SAM, 0.2 μM biotinylated oligonucleosomes, 3.6 μM H3K27me3 peptide and 2 nM EZH2.
(§2) A 12.5 μL volume of the HMT enzyme, H3K27me3 peptide and oligonucleosome substrate in assay buffer was added to each well of the assay plate using a Multidrop Combi (ThermoFisher). Compounds were pre-incubated with the enzyme for 20 min, followed by initiation of the methyltransferase reaction by addition of 12.5 μL of 3H SAM in assay buffer (final volume=25 μL). The final concentrations of compounds ranged from a top default concentration of 80 μM down to 0.16 μM in ten 2-fold dilution steps. Reactions were carried out for 60 minutes and quenched with 20 μL per well of 1.96 mM SAH, 50 mM Tris PH 8.5, 200 mM EDTA. Stopped reactions were transferred to SAV coated Flashplates (Perkin Elmer), incubated for 120 min, washed with a plate washer, and then read on the TopCount NXT (1.0 min/well) to measure the amount of methyl histone product formed during the reaction.

EZH2 = EZH2 (Homo sapiens, UniProt Q15910); test: EZH2 activity inhibition assay (rPRC2, 3H SAM, biotinylated oligonucleosomes, FlashPlate); format: biochemical; settings: rPRC2, 2 nM EZH2, 0.2 μM 3H SAM, top concentration 80 μM
Sequence of EZH2 (Q15910 whole entry): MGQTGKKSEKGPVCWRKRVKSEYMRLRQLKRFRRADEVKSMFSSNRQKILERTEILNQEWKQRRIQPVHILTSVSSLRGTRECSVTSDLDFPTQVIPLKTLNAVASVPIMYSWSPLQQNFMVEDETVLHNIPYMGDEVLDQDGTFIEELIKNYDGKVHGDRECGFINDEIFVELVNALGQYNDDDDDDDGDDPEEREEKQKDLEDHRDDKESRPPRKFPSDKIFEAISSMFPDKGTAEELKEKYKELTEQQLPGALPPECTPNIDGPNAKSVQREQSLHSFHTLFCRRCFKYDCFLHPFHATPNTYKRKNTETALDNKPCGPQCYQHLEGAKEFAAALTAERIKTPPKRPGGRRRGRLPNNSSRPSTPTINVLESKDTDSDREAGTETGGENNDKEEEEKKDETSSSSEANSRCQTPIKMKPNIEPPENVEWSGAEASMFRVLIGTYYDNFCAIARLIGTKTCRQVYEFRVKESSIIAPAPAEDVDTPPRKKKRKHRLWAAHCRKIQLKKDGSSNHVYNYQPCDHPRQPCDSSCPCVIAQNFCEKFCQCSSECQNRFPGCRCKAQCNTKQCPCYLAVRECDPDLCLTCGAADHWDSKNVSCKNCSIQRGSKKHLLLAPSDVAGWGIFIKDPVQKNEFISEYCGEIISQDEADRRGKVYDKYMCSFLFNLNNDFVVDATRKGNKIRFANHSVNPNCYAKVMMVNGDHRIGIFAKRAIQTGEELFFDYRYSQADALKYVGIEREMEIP
Sequence of EZH2 (O75530 whole entry partner): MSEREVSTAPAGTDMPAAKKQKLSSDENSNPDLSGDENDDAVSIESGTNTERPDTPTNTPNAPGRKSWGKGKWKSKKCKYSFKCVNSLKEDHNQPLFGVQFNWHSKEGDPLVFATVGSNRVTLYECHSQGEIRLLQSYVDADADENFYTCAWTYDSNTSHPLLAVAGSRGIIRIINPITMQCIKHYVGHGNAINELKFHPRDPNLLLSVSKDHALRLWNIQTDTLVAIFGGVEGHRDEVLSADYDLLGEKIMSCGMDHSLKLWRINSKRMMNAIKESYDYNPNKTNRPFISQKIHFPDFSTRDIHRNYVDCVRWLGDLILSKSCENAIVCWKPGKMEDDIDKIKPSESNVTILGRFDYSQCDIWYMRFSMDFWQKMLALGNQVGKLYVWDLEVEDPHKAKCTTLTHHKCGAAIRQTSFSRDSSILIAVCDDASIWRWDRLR
Sequence of EZH2 (Q15022 whole entry partner): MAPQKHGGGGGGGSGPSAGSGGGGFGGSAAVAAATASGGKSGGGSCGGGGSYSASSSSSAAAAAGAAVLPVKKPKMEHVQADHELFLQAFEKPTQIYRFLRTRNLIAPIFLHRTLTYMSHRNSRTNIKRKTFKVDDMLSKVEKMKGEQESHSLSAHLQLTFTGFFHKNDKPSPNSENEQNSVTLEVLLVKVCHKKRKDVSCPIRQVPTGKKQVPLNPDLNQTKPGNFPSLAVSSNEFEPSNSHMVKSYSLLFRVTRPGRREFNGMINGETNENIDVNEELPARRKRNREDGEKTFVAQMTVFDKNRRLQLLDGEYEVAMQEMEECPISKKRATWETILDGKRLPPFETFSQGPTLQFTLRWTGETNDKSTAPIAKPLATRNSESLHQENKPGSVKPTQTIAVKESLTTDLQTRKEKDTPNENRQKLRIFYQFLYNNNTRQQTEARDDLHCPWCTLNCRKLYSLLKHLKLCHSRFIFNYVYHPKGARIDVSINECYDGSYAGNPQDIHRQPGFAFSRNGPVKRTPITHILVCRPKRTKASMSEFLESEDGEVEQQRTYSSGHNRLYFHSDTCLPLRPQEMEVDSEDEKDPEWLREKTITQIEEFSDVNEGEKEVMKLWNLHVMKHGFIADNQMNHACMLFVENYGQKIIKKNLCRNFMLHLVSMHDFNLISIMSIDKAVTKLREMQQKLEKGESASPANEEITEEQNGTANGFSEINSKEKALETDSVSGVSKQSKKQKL
Procedure: as §1, with “Elmer).” for “Elmer). The final assay conditions for EZH2 were as follows: 50 mM Tris Buffer pH 8.5, 1 mM DTT, 69 μM Brij-35 detergent, 5.0 mM MgCl2, 0.1 mg/mL BSA, 0.2 μM ^3H SAM, 0.2 μM biotinylated oligonucleosomes, 3.6 μM H3K27me3 peptide and 2 nM EZH2.”
as §2, with “The final concentrations of compounds ranged from a top default concentration of 80 μM down to 0.16 μM in ten 2-fold dilution steps. Reactions were carried out for 60 minutes and quenched with 20 μL per well of 1.96 mM SAH, 50 mM Tris PH 8.5, 200 mM EDTA.” left out

Sequence of Y641N EZH2 (Q15910 whole entry Y641N): as the sequence (Q15910 whole entry) above, with Y641N counted along it
Sequence of Y641N EZH2 (O75530 whole entry partner): as the sequence (O75530 whole entry partner) above
Sequence of Y641N EZH2 (Q15022 whole entry partner): as the sequence (Q15022 whole entry partner) above

SMILES	IC50 (Y641N EZH2) [µM]	IC50 (EZH2) [µM]
Cc1cc(C)c(CNC(=O)c2ccc(C(C)Oc3ccccc3)c(F)c2)c(=O)[nH]1 (single isomer, unassigned) [Compound I-161, (S)— or (R)-3-fluoro-N-((2-hydroxy-4,6-dimethylpyridin-3-yl)methyl)-4-(1-phenoxyethyl)benzamide]	< 1	< 1
CCc1cccc(Oc2ccc(C(=O)NCc3c(C)cc(C)[nH]c3=O)cc2C)c1C#N [Compound I-4, 4-(2-cyano-3-ethylphenoxy)-N-((2-hydroxy-4,6-dimethylpyridin-3-yl)methyl)-3-methylbenzamide]	–	1 to 10
Cc1cc(C)c(CNC(=O)c2ccc(Oc3cccc(-c4ccncc4)c3C#N)c(Cl)c2)c(=O)[nH]1 [Compound I-6, 3-chloro-4-(2-cyano-3-(pyridin-4-yl)phenoxy)-N-((2-hydroxy-4,6-dimethylpyridin-3-yl)methyl)benzamide]	–	1 to 10
Cc1cc(C)c(CNC(=O)c2ccc(Oc3ccccc3-c3ccncc3)c(Cl)c2)c(=O)[nH]1 [Compound I-7, 3-chloro-N-((2-hydroxy-4,6-dimethylpyridin-3-yl)methyl)-4-(2-(pyridin-4-yl)phenoxy)benzamide]	–	1 to 10
Cc1cc(C)c(CNC(=O)c2ccc(Oc3ccccc3C#N)c(Cl)c2)c(=O)[nH]1 [Compound I-10, 3-chloro-4-(2-cyanophenoxy)-N-((2-hydroxy-4,6-dimethylpyridin-3-yl)methyl)benzamide]	1 to 10	1 to 10
Cc1cc(C)c(CNC(=O)c2ccc(N(C)c3ccccc3)cc2)c(=O)[nH]1 [Compound I-13]	1 to 10	< 1
COc1ccnc(Oc2ccc(C(=O)NCc3c(C)cc(C)[nH]c3=O)cc2)n1 [Compound I-15]	> 80	> 50
Cc1cc(C)c(CN(C)C(=O)c2ccc(Oc3cccc(-c4ccncn4)c3C#N)c(Cl)c2)c(O)n1 [Compound I-17, 3-chloro-4-(2-cyano-3-(pyrimidin-4-yl)phenoxy)-N-((2-hydroxy-4,6-dimethylpyridin-3-yl)methyl)-N-methylbenzamide]	> 50	1 to 10
Cc1cc(C)c(CNC(=O)c2ccc(Nc3ccccc3)cc2)c(=O)[nH]1 [Compound I-19]	10 to 50	1 to 10
Cc1cc(C)c(CN(C)C(=O)c2ccc(Oc3ccccc3)cc2)c(O)n1 [Compound I-20, N-((2-hydroxy-4,6-dimethylpyridin-3-yl)methyl)-N-methyl-4-phenoxybenzamide]	> 50	1 to 10
Cc1cc(C)c(CNC(=O)c2ccc(C(C)Oc3ccccc3)cc2)c(=O)[nH]1 (centres unmarked) [Compound I-23, N-((2-hydroxy-4,6-dimethylpyridin-3-yl)methyl)-4-(1-phenoxyethyl)benzamide]	< 1	< 1
Cc1cc(C)c(CNC(=O)c2ccc(COc3ccccc3)cc2C)c(=O)[nH]1 [Compound I-27, N-((2-hydroxy-4,6-dimethylpyridin-3-yl)methyl)-2-methyl-4-(phenoxymethyl)benzamide]	1 to 10	< 1
Cc1cc(C)c(CNC(=O)c2ccc(Oc3ccccc3)cc2C)c(=O)[nH]1 [Compound I-28, N-((2-hydroxy-4,6-dimethylpyridin-3-yl)methyl)-2-methyl-4-phenoxybenzamide]	10 to 50	1 to 10
Cc1cc(C)c(CNC(=O)c2ccc([S+]([O-])c3ccccc3)cc2)c(=O)[nH]1 (centres unmarked) [Compound I-29, N-((2-hydroxy-4,6-dimethylpyridin-3-yl)methyl)-4-(phenylsulfinyl)benzamide]	> 80	10 to 50
COc1cc(Oc2ccccc2)ccc1C(=O)NCc1c(C)cc(C)[nH]c1=O [Compound I-32, N-((2-hydroxy-4,6-dimethylpyridin-3-yl)methyl)-2-methoxy-4-phenoxybenzamide]	1 to 10	< 1

Further lines, results first:

IC50 (Y641N EZH2) [µM]	IC50 (EZH2) [µM]	SMILES
> 80	> 80	Cc1cc(C)c(CNC(=O)c2ccc(C(C)Oc3ccccc3)c(F)c2)c(=O)[nH]1 (single isomer, unassigned) [Compound I-160, (R)— or (S)-3-fluoro-N-((2-hydroxy-4,6-dimethylpyridin-3-yl)methyl)-4-(1-phenoxyethyl)benzamide]
> 80	10 to 50	Cc1cc(C)c(CNC(=O)c2ccc(C(C)Oc3ccccc3)cc2)c(=O)[nH]1 (stereo in doubt) [Compound I-30, (S)—N-((2-hydroxy-4,6-dimethylpyridin-3-yl)methyl)-4-(1-phenoxyethyl)benzamide]
10 to 50	1 to 10	Cc1cc(C)c(CNC(=O)c2ccc(Oc3ccccc3C#N)cc2)c(=O)[nH]1 [Compound I-2, 4-(2-cyanophenoxy)-N-((2-hydroxy-4,6-dimethylpyridin-3-yl)methyl)benzamide]
1 to 10	< 1	Cc1cc(C)c(CNC(=O)c2ccc(COc3cccc(-c4ccc(N)nc4)c3)cc2)c(=O)[nH]1 [Compound I-3, 4-((3-(6-aminopyridin-3-yl)phenoxy)methyl)-N-((2-hydroxy-4,6-dimethylpyridin-3-yl)methyl)benzamide]
–	1 to 10	Cc1cc(C)c(CNC(=O)c2ccc(Oc3cccc(-c4cn[nH]c4)c3C#N)c(Cl)c2)c(=O)[nH]1 [Compound I-5, 3-chloro-4-(2-cyano-3-(1H-pyrazol-4-yl)phenoxy)-N-((2-hydroxy-4,6-dimethylpyridin-3-yl)methyl)benzamide]
1 to 10	1 to 10	Cc1cc(C)c(CNC(=O)c2ccc(COc3ccccc3)cc2)c(=O)[nH]1 [Compound I-11, N-((2-hydroxy-4,6-dimethylpyridin-3-yl)methyl)-4-(phenoxymethyl)benzamide]
10 to 50	1 to 10	Cc1cc(C)c(CNC(=O)c2ccc(OCc3ccccc3)cc2)c(=O)[nH]1 [Compound I-12, 4-(benzyloxy)-N-((2-hydroxy-4,6-dimethylpyridin-3-yl)methyl)benzamide]
> 80	> 50	Cc1cc(C)c(CNC(=O)c2ccc(Oc3ncccn3)cc2)c(=O)[nH]1 [Compound I-14]
10 to 50	1 to 10	Cc1cc(C)c(CNC(=O)c2ccc(Oc3ccccc3)nc2)c(=O)[nH]1 [Compound I-16]
> 80	10 to 50	Cc1cc(C)c(CNC(=O)c2ccc(Nc3ccccc3)nc2)c(=O)[nH]1 [Compound I-18]
10 to 50	1 to 10	Cc1cc(C)c(CNC(=O)c2ccc(Oc3ccccc3)cn2)c(=O)[nH]1 [Compound I-21, N-((2-hydroxy-4,6-dimethylpyridin-3-yl)methyl)-5-phenoxypicolinamide]
1 to 10	< 1	Cc1cc(C)c(CNC(=O)c2ccc(Oc3ccccc3)cc2Cl)c(=O)[nH]1 [Compound I-22]
> 50	10 to 50	Cc1cc(C)c(CNC(=O)c2ccc(C(O)c3ccccc3)cc2)c(=O)[nH]1 (centres unmarked) [Compound I-24]
10 to 50	1 to 10	Cc1cc(C)c(CNC(=O)c2ccc(C(C)(O)c3ccccc3)cc2)c(=O)[nH]1 (centres unmarked) [Compound I-25]
> 80	10 to 50	Cc1cc(C)c(CNC(=O)c2ccc(S(=O)(=O)c3ccccc3)cc2)c(=O)[nH]1 [Compound I-26, N-((2-hydroxy-4,6-dimethylpyridin-3-yl)methyl)-4-(phenylsulfonyl)benzamide]
< 1	< 1	Cc1cc(C)c(CNC(=O)c2ccc([C@H](C)Oc3ccccc3)cc2)c(O)n1 [Compound I-31, (S)—N-((2-hydroxy-4,6-dimethylpyridin-3-yl)methyl)-4-(1-phenoxyethyl)benzamide]
1 to 10	< 1	Cc1cc(C)c(CNC(=O)c2ccc(Cc3ccccc3)cc2)c(=O)[nH]1 [Compound I-34, 4-benzyl-N-((2-hydroxy-4,6-dimethylpyridin-3-yl)methyl)benzamide]
1 to 10	< 1	Cc1ccc(OC(C)c2ccc(C(=O)NCc3c(C)cc(C)[nH]c3=O)cc2)cc1 (centres unmarked) [Compound I-35, N-((2-hydroxy-4,6-dimethylpyridin-3-yl)methyl)-4-(1-(p-tolyloxy)ethyl)benzamide]
